The text below walks through data of ChEMBL document CHEMBL2069200, “Synthesis and evaluation of 4-(substituted styryl/alkenyl)-3,5-bis(4-hydroxyphenyl)-isoxazoles as ligands for the estrogen receptor” (Bioorg Med Chem Lett, 2012).

This test concerns the target T1, Estrogen receptor (Homo sapiens) (UniProt P03372).
T1 sequence (whole entry): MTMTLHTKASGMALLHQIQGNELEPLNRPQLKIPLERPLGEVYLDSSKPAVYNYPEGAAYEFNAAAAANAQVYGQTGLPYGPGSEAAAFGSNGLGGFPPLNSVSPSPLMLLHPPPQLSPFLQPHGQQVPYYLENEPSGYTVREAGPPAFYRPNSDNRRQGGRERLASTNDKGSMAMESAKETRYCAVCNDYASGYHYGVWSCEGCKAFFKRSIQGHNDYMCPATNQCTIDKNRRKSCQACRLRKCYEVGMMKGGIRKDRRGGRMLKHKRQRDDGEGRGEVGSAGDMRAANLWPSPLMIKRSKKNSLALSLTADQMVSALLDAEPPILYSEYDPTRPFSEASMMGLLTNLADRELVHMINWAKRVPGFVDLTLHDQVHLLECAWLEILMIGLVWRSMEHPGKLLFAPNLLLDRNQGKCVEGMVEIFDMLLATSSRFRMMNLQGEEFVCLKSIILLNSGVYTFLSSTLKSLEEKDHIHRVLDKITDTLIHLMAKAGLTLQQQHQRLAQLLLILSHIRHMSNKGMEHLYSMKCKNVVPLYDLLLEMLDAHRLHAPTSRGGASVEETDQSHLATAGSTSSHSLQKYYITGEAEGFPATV
Put plainly: Displacement of [3H]-estradiol from human ERalpha LBD expressed in Escherichia coli assessed as relative binding affinity relative to estradiol.

Regarding `CCc1c(-c2ccc(O)cc2)nn(-c2ccc(O)cc2)c1-c1ccc(O)cc1`, the RBA was 36%.
With `Oc1ccc(-c2noc(-c3ccc(O)cc3)c2-c2ccc(O)cc2)cc1` the figure was 30%.
Then `Oc1ccc(-c2noc(-c3ccc(O)cc3)c2/C=C/c2ccc(F)cc2)cc1`, with 3.1%; and `CCCCCCC/C=C/c1c(-c2ccc(O)cc2)noc1-c1ccc(O)cc1`, with 1.3%; and `Oc1ccc(-c2noc(-c3ccc(O)cc3)c2/C=C/c2cccc(C(F)(F)F)c2)cc1`, with 1.5%.
As to `Oc1ccc(-c2noc(-c3ccc(O)cc3)c2/C=C\c2ccccc2)cc1`, the RBA amounted to 8.7%.
Then `Oc1ccc(-c2noc(-c3ccc(O)cc3)c2/C=C/c2ccccc2)cc1`, with 3.5%; and `Oc1ccc(/C=C/c2c(-c3ccc(O)cc3)noc2-c2ccc(O)cc2)cc1`, with 16.4%.
Then `Oc1ccc(-c2noc(-c3ccc(O)cc3)c2/C=C/c2ccc(Cl)cc2)cc1`, with 0.8%; and `CCCCC/C=C/c1c(-c2ccc(O)cc2)noc1-c1ccc(O)cc1`, with 1.8%.
With `CCCCCC/C=C/c1c(-c2ccc(O)cc2)noc1-c1ccc(O)cc1` the figure was 2.5%.
In the case of `CC(C)(C)/C=C/c1c(-c2ccc(O)cc2)noc1-c1ccc(O)cc1`, the RBA turned out to be 4.3%.
With `Oc1ccc(-c2noc(-c3ccc(O)cc3)c2/C=C/c2ccc(C(F)(F)F)cc2)cc1` the figure was 5.3%; with `Oc1ccc(-c2noc(-c3ccc(O)cc3)c2/C=C/c2cccc(O)c2)cc1`, 8.7%; with `Cc1ccc(/C=C/c2c(-c3ccc(O)cc3)noc2-c2ccc(O)cc2)cc1`, 0.6%.
